Test results: patent publication US11312704B2, “Inhibitors of cysteine proteases and methods of use thereof” (priority 2020, dated 2022)
Where two headings read alike, the source gives them in different places.

Tests used:
[1] = system: cell viability without virus infection; assay: Cytotoxicity under the 229E CPE conditions without virus infection (CellTiter Glo); conditions: read-out: 229E CC50
229E mPRO = 229E mPRO (Human coronavirus 229E (HCoV-229E), UniProt P0C6X1); assay: 229E mPRO enzymatic assay; type: biochemical, Human Coronavirus (HCov) 229E
Description: Compounds were assayed using standard methods to assess compound activity and IC50. […] The assay buffer contained 20 mM of Tris-HCl (pH 7.3), 100 mM of NaCl, 1 mM of EDTA, 5 mM of TCEP and 0.1% BSA.
The compounds were added to an assay plate.
IC50 values of compounds were calculated with the GraphPad Prism software using the nonlinear regression model of log(inhibitor) vs. response—Variable slope (four parameters). The inhibition activity was calculated using the formula below, IC50 values was calculated using the Inhibition % data. Inhibition %=[(Sample-Average ZPE)/(Average HPE-Average ZPE)]*100%^#

HCoV 229E = HCoV 229E cytopathic effect (CPE) assay; type: cell-based, Human Coronavirus (HCov) 229E; conditions: CellTiter Glo
Description: The antiviral activity of compounds was calculated based on the protection of the virus-induced CPE at each concentration normalized by the virus control.
Reagents and instruments used in this assay include luminescent cell viability assay kit CellTiter Glo (Promega) and Microplate Reader Synergy2 (BioTek).
Cytopathic effect (CPE) was measured by CellTiter Glo following the manufacturer's manual. The antiviral activity of compounds was calculated based on the protection of the virus-induced CPE at each concentration normalized by the virus control.

SARS-COV2 Mpro = SARS-COV2 Mpro (Severe acute respiratory syndrome coronavirus 2 (2019-nCoV) (SARS-CoV-2), UniProt P0DTD1); assay: SARS-CoV2 Mpro enzymatic assay; type: biochemical; conditions: 25 nM Mpro, 25 μM substrate

229E mPRO, sequence (P0C6X1 2966-3267 limits assumed): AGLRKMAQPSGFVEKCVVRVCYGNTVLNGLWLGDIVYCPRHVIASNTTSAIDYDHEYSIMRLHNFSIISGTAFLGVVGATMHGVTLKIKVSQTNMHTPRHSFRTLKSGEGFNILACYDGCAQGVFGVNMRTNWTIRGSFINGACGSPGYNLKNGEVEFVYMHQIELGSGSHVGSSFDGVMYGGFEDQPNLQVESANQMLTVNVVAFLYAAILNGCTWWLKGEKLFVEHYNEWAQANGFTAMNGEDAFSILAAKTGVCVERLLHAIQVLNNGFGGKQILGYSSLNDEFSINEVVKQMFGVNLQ

Row | SMILES | IC50 (229E mPRO; read-out: 229E mPRO IC50) | EC50 (HCoV 229E) | also measured
1 | CC(C)CC(NC(=O)c1nc2ncccc2[nH]1)C(=O)NC(C#N)CC1CCNC1=O (single isomer, unassigned) [130 (Isomer 1)] |  |  | CC50 [1]: > 30000 nM
2 | COc1cccc2[nH]c(C(=O)N[C@@H](CC(C)C)C(=O)N[C@@H](C[C@@H]3CCNC3=O)C(C#N)N3CCCC3)cc12 (single isomer, unassigned) [331 (Isomer 2)] | < 2000 nM |  | 
3 | COc1cccc2[nH]c(C(=O)N[C@@H](CC3CC3)C(=O)N[C@H](C#N)C[C@@H]3CCCNC3=O)cc12 (single isomer, unassigned) [491 (Isomer 1)] | < 2000 nM |  | 
4 | COc1cccc2[nH]c(C(=O)N[C@H](CC3CC3)C(=O)N[C@H](C#N)C[C@@H]3CCCNC3=O)cc12 (single isomer, unassigned) [491A (Isomer 2)] |  |  | IC50 (229E mPRO): < 2000 nM
5 | CCNC(C#N)[C@H](C[C@@H]1CCNC1=O)NC(=O)[C@H](CC(C)C)NC(=O)c1cc2c(OC)cccc2[nH]1 (single isomer, unassigned) [511 (Isomer 1)] | < 2000 nM | < 2000 nM | 
6 | CCNC(C#N)[C@H](C[C@@H]1CCNC1=O)NC(=O)[C@H](CC(C)C)NC(=O)c1cc2c(OC)cccc2[nH]1 (single isomer, unassigned) [511 (Isomer 2)] | < 2000 nM |  | 
7 | N#C[C@H](C[C@@H]1CCCNC1=O)NC(=O)[C@H](CC1CC1)NC(=O)c1cc2cccc(Cl)c2[nH]1 (single isomer, unassigned) [639 (Isomer 1)] | < 2000 nM | < 2000 nM | 
8 | COc1cccc2[nH]c(C(=O)N3CC4(CCC4)CC3C(=O)N[C@H](C#N)C[C@@H]3CCCNC3=O)cc12 (single isomer, unassigned) [719 (Isomer 2)] | < 2000 nM | < 2000 nM | IC50 (SARS-COV2 Mpro): < 2000 nM
9 | COc1cccc2[nH]c(C(=O)N[C@@H](CC(C)C)C(=O)N[C@H](C#N)Cc3cn(C)cn3)cc12 [Compound 227, N-[(1S)-1-[[(1S)-1-cyano-2-(1-methylimidazol-4-yl)ethyl]carbamoyl]-3-methyl-butyl]-4-methoxy-1H-indole-2-carboxamide] | > 30000 nM |  | 
10 | COc1cccc2[nH]c(C(=O)N[C@@H](CC(C)C)C(=O)N[C@@H](C[C@@H]3CCNC3=O)C(C#N)Nc3ccccc3)cc12 (some centres unmarked) [Compound 327] | < 2000 nM |  | IC50 (SARS-COV2 Mpro): < 2000 nM
11 | CCCOc1cccc2[nH]c(C(=O)N[C@@H](CC(C)C)C(=O)N[C@H](C#N)C[C@@H]3CCNC3=O)cc12 [Compound 379] | < 2000 nM | < 2000 nM | 
12 | COc1cccc2[nH]c(C(=O)N3C[C@H](OC)C[C@H]3C(=O)N[C@H](C#N)C[C@@H]3CCNC3=O)cc12 [Compound 407] | < 2000 nM | < 2000 nM | 
13 | N#C[C@H](C[C@@H]1CCCNC1=O)NC(=O)[C@H](CC1CC1)NC(=O)c1cc2cc(Cl)ncc2[nH]1 [Compound 717] |  | < 2000 nM | 
14 | CC(C)(C)C[C@H](NC(=O)c1cc2cccc(Cl)c2[nH]1)C(=O)N[C@H](C#N)C[C@@H]1CCCNC1=O [Compound 721, 7-chloro-N—((S)-1-(((S)-1-cyano-2-((S)-2-oxopiperidin-3-yl)ethyl)amino)-4,4-dimethyl-1-oxopentan-2-yl)-1H-indole-2-carboxamide] |  | < 2000 nM | 
15 | CC(C)(C)C[C@H](NC(=O)c1cc2ccc(Cl)c(Cl)c2[nH]1)C(=O)N[C@H](C#N)C[C@@H]1CCCNC1=O [Compound 725] |  | < 2000 nM | 
16 | CC(C)(C)C[C@H](NC(=O)c1cc2c(Cl)ccc(Cl)c2[nH]1)C(=O)N[C@H](C#N)C[C@@H]1CCCNC1=O [Compound 735] |  | < 2000 nM | 
17 | COc1ccc(Cl)c2[nH]c(C(=O)N[C@@H](CC(C)(C)C)C(=O)N[C@H](C#N)C[C@@H]3CCCNC3=O)cc12 [Compound 737] |  | < 2000 nM | 
18 | COc1c(Cl)ccc2[nH]c(C(=O)N[C@@H](CC(C)(C)C)C(=O)N[C@H](C#N)C[C@@H]3CCCNC3=O)cc12 [Compound 739] |  | < 2000 nM | 
19 | CC(C)(C)C[C@H](NC(=O)c1cc2ccc(Cl)cc2[nH]1)C(=O)N[C@H](C#N)C[C@@H]1CCCNC1=O [Compound 745] |  | < 2000 nM | 
